According to patent US10596172B2 (Celgene CAR LLC, priority 2008, dated 2020):
Read-outs that look alike come from different tables or passages of the source.

What was measured:
[1] = molecular target: BTK (Rattus norvegicus, UniProt Q5S255); assay: BTK occupancy from in vivo samples by ELISA; conditions: po, rats dosed orally 30 mg/kg
Procedure: All samples were prepared with equal concentrations of Biorad lysis buffer (Hercules, Calif., USA), 0.5% bovine serum albumin in PBS with 0.05% Tween-20 to give a final concentration of 1 μM I-215. Samples were incubated in a mixing plate for 1 hr at room temperature while shaking to allow probe compound I-215 to bind to free BTK. After incubation with I-215, samples were added to a washed, streptavidin-coated ELISA plate (Pierce, Rockford, Ill., USA) and incubated for 1 hr at room temperature while shaking. The plate was then washed with PBS containing 0.05% Tween-20 using an automatic plate washer. Anti-BTK antibody was prepared at 1:1000 dilution in 0.5% BSA in PBS (0.05% Tween-20) and added to the ELISA plate. The plate was incubated for 1 hr at room temperature while shaking. The plate was washed as described above and the secondary HRP antibody was prepared at 1:5000 dilution in 0.5% BSA in PBS (0.05% Tween-20). The plate was incubated and washed as described above. TMB was added to the plate, and OD650 was monitored until reaching 1 OD unit. The reaction was then stopped with addition of H2SO4. The plate was analyzed using Gen 5 software, and a 4 Parameter Logistic curve was employed to quantitate samples. Recombinant BTK (Invitrogen, Carlsbad, Calif., USA) was used for the standard curve.
Rats were dosed orally with 30 mg/kg of compound and spleens were harvested either 2 or 24 hours after compound treatment. Rat spleens were disrupted between two microscope slides coated with frosted glass to recover single cell suspensions. Red blood cells were lysed by incubating with RBC lysis buffer (Boston BioProducts) for 2 minutes at room temperature, the cells were then resuspended in RPMI complete media and pelleted by centrifugation. Rat B cells were isolated by positive selection with B220+ antibody-magnetic bead conjugates, purified by MACS column and lysed in Bio-Rad lysis buffer at a concentration of 10 million cells/100 μl. Lysates were analyzed employing the biotinylated probe compound I-215 in an ELISA protocol as described in detail in Example 278.

[2] = molecular target: JAK3 (Homo sapiens (Human), UniProt P52333); assay: Omnia assay for potency assessment against the active form of JAK3; format: biochemical; conditions: read-out: JAK3 Inhibition
[3] = molecular target: BTK (Homo sapiens (Human), UniProt Q06187); assay: Washout experiment with Ramos cells; format: cell-based; conditions: 100 nM compound 1 hour, then washout
Procedure: Ramos cells were serum starved for one hour in RPMI media +1% glutamine at 37° C. After starvation, Ramos cells were treated with 100 nM compound diluted in serum free RPMI media for 1 hour. After compound treatment, the media was removed and cells were washed with compound-free media. Subsequently, Ramos cells were washed every 2 hours and resuspended in fresh compound-free media. Cells were collected at specified timepoints, treated with 1 ug anti-human IgM (Southern Biotech cat #2022-01) for 10 minutes on ice to induce BCR signaling and then washed in PBS. Ramos cells were then lysed in Cell Extraction Buffer (Invitrogen FNN0011) supplemented with Roche complete protease inhibitor tablets (Roche 11697498001) and phosphatase inhibitors (Roche 04 906 837 001) and 18 ug total protein lysate was loaded in each lane. Inhibition of BTK kinase activity was assayed by measuring its substrate (PLCγ2) phosphorylation by western blot with phospho-specific antibodies from Cell Signaling Technologies cat #3871. The results of this experiment with compounds I-2, I-4 and I-7 are depicted in FIGS. 1, 2 and 3.

[4] = spleen B cells harvested 2 hours after treatment, read-out: % BTK Occupancy 2 h
[5] = spleen B cells harvested 24 hours after treatment, read-out: % BTK Occupancy 24 h

Sequence of BTK (Rattus norvegicus, UniProt Q5S255) (Q5S255 1-660): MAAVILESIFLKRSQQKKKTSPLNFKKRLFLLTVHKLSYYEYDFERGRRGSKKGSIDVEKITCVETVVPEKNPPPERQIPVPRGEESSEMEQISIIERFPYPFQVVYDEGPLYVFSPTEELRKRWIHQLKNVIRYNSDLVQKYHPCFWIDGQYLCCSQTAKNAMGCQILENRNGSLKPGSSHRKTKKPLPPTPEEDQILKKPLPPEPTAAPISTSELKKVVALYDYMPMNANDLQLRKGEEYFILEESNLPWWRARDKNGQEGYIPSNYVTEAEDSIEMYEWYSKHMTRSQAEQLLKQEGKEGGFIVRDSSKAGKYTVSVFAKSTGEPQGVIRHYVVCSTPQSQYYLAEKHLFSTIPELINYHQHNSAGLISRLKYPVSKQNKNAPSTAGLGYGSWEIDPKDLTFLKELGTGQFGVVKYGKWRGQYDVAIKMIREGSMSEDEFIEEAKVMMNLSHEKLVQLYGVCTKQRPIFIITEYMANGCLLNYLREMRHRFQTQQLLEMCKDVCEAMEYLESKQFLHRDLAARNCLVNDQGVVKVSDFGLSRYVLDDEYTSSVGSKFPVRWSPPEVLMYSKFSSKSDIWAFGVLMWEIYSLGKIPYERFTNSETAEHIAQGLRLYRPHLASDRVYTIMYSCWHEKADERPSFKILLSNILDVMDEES
Sequence of BTK (Homo sapiens (Human), UniProt Q06187) (Q06187 whole entry): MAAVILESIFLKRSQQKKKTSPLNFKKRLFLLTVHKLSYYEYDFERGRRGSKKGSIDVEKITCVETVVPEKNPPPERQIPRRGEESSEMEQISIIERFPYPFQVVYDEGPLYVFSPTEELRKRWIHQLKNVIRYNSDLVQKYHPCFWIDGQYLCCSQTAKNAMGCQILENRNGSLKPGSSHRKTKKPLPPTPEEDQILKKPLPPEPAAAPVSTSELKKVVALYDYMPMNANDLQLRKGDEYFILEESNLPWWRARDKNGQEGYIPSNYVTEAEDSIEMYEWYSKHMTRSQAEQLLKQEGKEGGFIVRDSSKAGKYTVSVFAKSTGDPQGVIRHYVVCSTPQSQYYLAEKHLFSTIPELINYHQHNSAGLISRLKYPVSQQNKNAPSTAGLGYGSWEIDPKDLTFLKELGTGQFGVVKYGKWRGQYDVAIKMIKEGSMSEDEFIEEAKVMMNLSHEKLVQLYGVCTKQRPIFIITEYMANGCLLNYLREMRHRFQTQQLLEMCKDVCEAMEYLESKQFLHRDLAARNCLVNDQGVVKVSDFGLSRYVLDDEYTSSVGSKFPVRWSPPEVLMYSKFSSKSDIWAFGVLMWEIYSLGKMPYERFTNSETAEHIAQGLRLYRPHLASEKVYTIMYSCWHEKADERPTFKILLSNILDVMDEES
Sequence of JAK3 (P52333 whole entry): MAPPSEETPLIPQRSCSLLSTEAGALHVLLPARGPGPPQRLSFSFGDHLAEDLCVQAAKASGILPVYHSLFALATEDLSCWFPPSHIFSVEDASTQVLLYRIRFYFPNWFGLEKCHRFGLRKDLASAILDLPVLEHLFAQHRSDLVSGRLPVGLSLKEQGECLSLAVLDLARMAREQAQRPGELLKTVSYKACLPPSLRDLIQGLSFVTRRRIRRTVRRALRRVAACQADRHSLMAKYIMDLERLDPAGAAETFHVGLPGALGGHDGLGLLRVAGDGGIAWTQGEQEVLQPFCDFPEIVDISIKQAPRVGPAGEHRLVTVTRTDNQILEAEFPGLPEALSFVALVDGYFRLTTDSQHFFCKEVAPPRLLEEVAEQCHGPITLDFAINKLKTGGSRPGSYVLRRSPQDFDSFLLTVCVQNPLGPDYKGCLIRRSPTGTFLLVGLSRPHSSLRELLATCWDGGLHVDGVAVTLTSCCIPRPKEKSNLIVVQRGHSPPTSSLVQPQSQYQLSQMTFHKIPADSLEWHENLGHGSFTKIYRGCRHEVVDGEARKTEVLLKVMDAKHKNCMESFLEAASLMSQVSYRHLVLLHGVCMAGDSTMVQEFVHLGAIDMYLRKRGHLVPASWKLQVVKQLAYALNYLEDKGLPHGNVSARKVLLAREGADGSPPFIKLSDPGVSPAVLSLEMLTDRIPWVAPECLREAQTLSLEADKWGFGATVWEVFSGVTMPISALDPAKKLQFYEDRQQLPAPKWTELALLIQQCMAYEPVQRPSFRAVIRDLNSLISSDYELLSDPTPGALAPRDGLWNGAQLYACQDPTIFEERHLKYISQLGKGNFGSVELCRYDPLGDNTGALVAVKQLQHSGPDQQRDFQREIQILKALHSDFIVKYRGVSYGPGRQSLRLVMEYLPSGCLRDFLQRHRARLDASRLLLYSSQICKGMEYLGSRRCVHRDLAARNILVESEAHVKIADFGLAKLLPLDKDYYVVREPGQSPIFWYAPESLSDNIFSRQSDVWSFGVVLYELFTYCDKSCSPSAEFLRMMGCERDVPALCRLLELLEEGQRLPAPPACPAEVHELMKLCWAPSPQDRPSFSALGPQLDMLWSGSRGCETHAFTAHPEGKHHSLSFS

| receptor occupancy at 30 mg/kg [1, 4] [%] | receptor occupancy at 30 mg/kg [1, 5] [%] | IC50 [2] [µM] | BTK Inhibition Type [3] | Structure (SMILES) |
| --- | --- | --- | --- | --- |
| 87 | 68 | < 0.01 | irreversible | Cc1cccc(Nc2nc(Nc3cccc(NC(=O)/C=C/CN(C)C)c3)ncc2F)c1 [Compound I-4, (E)-4-(dimethylamino)-N-(3-(5-fluoro-4-(m-tolylamino)pyrimidin-2-ylamino)phenyl)but-2-enamide] |
| 98 | 78 | < 0.01 | irreversible | C=CC(=O)Nc1cccc(Nc2nc(Nc3ccccc3)ncc2C)c1 [Compound I-7, N-(3-(5-methyl-2-(phenylamino)pyrimidin-4-ylamino)phenyl)acrylamide] |
